# Entries after “also recorded” stand apart in the source; their conditions may differ. Like-named read-outs stand apart in the source and are kept apart here.
# Columns and labels:
# Sprague-Dawley rats [1] = assay: animal or person; conditions: for ED50: LORR in rats, tail vein, brackets = 95% confidence limit; for Approximate therapeutic index / Minimal lethal dose: rats
# Procedure: (§1) Adult male Sprague-Dawley rats (250-300 g) were selected for the experiment. […] The anesthesia effects of the compounds were assessed in rats using a LORR assay and a period >30 s was considered as an indicator of general anesthesia.
# H295R cell line [2] = assay: Adrenocortical function in vitro test: secretion of cortisol and corticosterone, Group B compounds; assay type: cell-based; conditions: H295R cells; for EC50: 0.1-10000 nM, HPLC-MS/MS
# Sprague-Dawley rats [3] = assay: Continuous infusion at 2 times the MIR for 1 hour, Group B compounds; assay type: in vivo; conditions: for Recovery time after stopping infusion: after 1 hour continuous infusion at 2 times the MIR; for Recovery time after stopping infusion / Onset time: rats; for Onset time: continuous tail vein infusion at 2 times the MIR, emulsion
# Procedure: Time to recovery of righting reflex from stopping infusion, and time to fully awake from stopping infusion were recorded.
# Sprague-Dawley rats [4] = assay: animal or person; assay type: in vivo; conditions: LORR, up and down method, tail vein, rats, class symbols
# Source text: (§2) Evaluating indicator: The end point of anesthesia: the disappearance of forepaw righting reflex (lorr) was used as the end point of anesthesia; General anesthesia effect: the disappearance of forepaw righting reflex in rats lasting for 30 seconds is taken as the index of general anesthesia effect; Anesthesia recovery index: the recovery of rat forepaw righting reflex was used as the index of anesthesia recovery.
# Sprague-Dawley rats [5] = assay: animal or person; assay type: in vivo; conditions: LORR, up and down method, tail vein, rats, class symbols; remark: listed apart in the source
# Source text: as §2, with “LORR” for “the disappearance of forepaw righting reflex (lorr)”
# Sprague-Dawley rats [6] = assay: Pharmacological effect and adverse reactions under the equivalent dose (2ED50), Group C compounds; assay type: in vivo
# Source text: (§3) Evaluation index: onset time: from the completion of drug injection to the disappearance of forepaw righting reflex in rats; Duration of anesthesia: the time from the disappearance of rat forepaw righting reflex to the recovery of rat forepaw righting reflex; Recovery time of anesthesia: the time from the […] to complete recovery;
# Sprague-Dawley rats [7] = assay: Pharmacological effect and adverse reactions under the equivalent dose (2ED50), Group D compounds; assay type: in vivo
# Source text: as §3
# Sprague-Dawley rats [8] = assay: animal or person; conditions: for ED50: Rattus norvegicus; for Approximate therapeutic index / Minimal lethal dose: rats
# Procedure: as §1
# Sprague-Dawley rats [9] = assay: Pharmacological characteristics at equivalent doses (2ED50), Group A compounds; assay type: in vivo; conditions: 2ED50, tail vein; for Types and incidence of adverse reactions: (animals affected/animals)
# H295R cell line [10] = assay: Adrenocortical function in vitro test: secretion of cortisol and corticosterone, Group A compounds; assay type: cell-based; conditions: H295 cells; for EC50: Homo sapiens, 0.1-10000 nM, HPLC-MS/MS
# [11] = read-out: EC50 (Corticosterone)
# [12] = continuous infusion 2 x MIR 1 hour, rats affected/rats
# [13] = Rattus norvegicus, read-out: ED50
# [14] = 2ED50, tail vein, rats, n=8, unit min
# [15] = equivalent dose (2ED50), number of rats of n = 8
# [16] = equivalent dose (2 × ED50), number of rats of n = 8
Compound,ED50 (Sprague-Dawley rats [8]),Approximate therapeutic index (Sprague-Dawley rats [8]),Minimal lethal dose (Sprague-Dawley rats [8]),Onset time (Sprague-Dawley rats [9]),Righting reflex duration (Sprague-Dawley rats [9]),Corticosterone as an indicator to determine the presence of inhibition (H295R cell line [10]),Cortisol as an indicator to determine the presence of inhibition (H295R cell line [10]),EC50 (H295R cell line [10]; [11]),EC50 (H295R cell line [10]; read-out: EC50 (Cortisol)),other results
C[C@H](c1ccccc1)n1nncc1C(=O)OC(C)(C)C [Compound B12],,,,,,,,,,ED50 (Sprague-Dawley rats [1]): A (A indicates that the measured ED50 is in the range of 0.04-0.50 mg/kg (including 0.04 and 0.50 mg/kg)); Approximate therapeutic index (Sprague-Dawley rats [1]): >16; Minimal lethal dose (Sprague-Dawley rats [1]): >5 mg/kg; Corticosterone as an indicator to determine the presence of inhibition (H295R cell line [2]): 0; Cortisol as an indicator to determine the presence of inhibition (H295R cell line [2]): 0; EC50 (H295R cell line [2]; [11]): > 1 µM; EC50 (H295R cell line [2]; read-out: EC50 (Cortisol)): > 1 µM; Recovery time after stopping infusion (Sprague-Dawley rats [3]): 13 to 15 min; Types and incidence of adverse reactions: Tremor (Sprague-Dawley rats [3]; [12]): Tremor(3/6); Onset time (Sprague-Dawley rats [3]): 5 to 6 min
CC#CCOCC(OC)(OC)C(=O)c1cncn1[C@H](C)c1ccccc1 [Compound D73],,,,,,,,,,ED50 (Sprague-Dawley rats [4]): +++++ (+++++ indicates that the measured ED50 is greater than 6.00 mg/kg (excluding 6.00 mg/kg))
CCOC(=O)c1nnn([C@H](C)c2ccccc2)c1Br [Compound B100],,,,,,,,,,"ED50 (Sprague-Dawley rats [1]): D (D indicates that the measured ED50 is in the range of 2.00-10.00 mg/kg (excluding 2.00 mg/kg, including 10.00 mg/kg)); Approximate therapeutic index (Sprague-Dawley rats [1]): >2; Minimal lethal dose (Sprague-Dawley rats [1]): >18 mg/kg; Corticosterone as an indicator to determine the presence of inhibition (H295R cell line [2]): 0; Cortisol as an indicator to determine the presence of inhibition (H295R cell line [2]): 0; EC50 (H295R cell line [2]; [11]): > 1 µM; EC50 (H295R cell line [2]; read-out: EC50 (Cortisol)): > 1 µM; Recovery time after stopping infusion (Sprague-Dawley rats [3]): 15 to 17 min; Types and incidence of adverse reactions: Tongue stretching (Sprague-Dawley rats [3]; [12]): stretching(3/6); Types and incidence of adverse reactions: Tremor (Sprague-Dawley rats [3]; [12]): Tremor(2/6), Tongue; Onset time (Sprague-Dawley rats [3]): 5 to 6 min"
CC#CCOC(=O)C(=O)c1cncn1[C@H](C)c1ccccc1 [Compound D84],,,,,,,,,,ED50 (Sprague-Dawley rats [4]; [13]): 2 to 6 mg/kg
CC#CCOCC(=O)c1ccnn1[C@H](C)c1ccccc1 [Compound C1],,,,,,,,,,"ED50 (Sprague-Dawley rats [5]): ++++ (++++ indicates that the measured ED50 is in the range of 2.00-10.00 mg/kg (excluding 2.00 mg/kg, including 6.00 mg/kg)); Righting reflex duration (Sprague-Dawley rats [6]; 2ED50, tail vein, rats, n=8): 0.90 ± 0.30 min; Sedation duration (Sprague-Dawley rats [6]; 2ED50, tail vein, rats, n=8): 9.06 ± 1.21 min; Onset time (Sprague-Dawley rats [6]; [14]): <1 min; Adverse reaction: Convulsions (Sprague-Dawley rats [6]; [15]): 0; Adverse reaction: Cough, broken-winded (Sprague-Dawley rats [6]; [15]): 0; Adverse reaction: Euphoria (Sprague-Dawley rats [6]; [15]): 2; Adverse reaction: Red urine (Sprague-Dawley rats [6]; [15]): 8; Adverse reaction: Slower breathing, Tetany convulsion (Sprague-Dawley rats [6]; [15]): 0; Adverse reaction: Systemic stiffness, Convulsions, Opisthotonus (Sprague-Dawley rats [6]; [15]): 0; Adverse reaction: Tongue stretching (Sprague-Dawley rats [6]; [15]): 1; Adverse reaction: Tremor (Sprague-Dawley rats [6]; [15]): 0; Adverse reaction: the four limbs rigidity (Sprague-Dawley rats [6]; [15]): 0"
CC#CC(=O)c1cncn1[C@H](C)c1ccccc1 [Compound C54],,,,,,,,,,ED50 (Sprague-Dawley rats [5]; [13]): 20 to 30 mg/kg
CCOC(OC)(OC)C(=O)c1ccnn1[C@H](C)c1ccccc1 [Compound D3],,,,,,,,,,"ED50 (Sprague-Dawley rats [4]; [13]): 2 to 6 mg/kg; Righting reflex duration (Sprague-Dawley rats [7]; 2ED50, tail vein, rats, n=8): 1.25 ± 0.27 min; Sedation duration (Sprague-Dawley rats [7]; 2ED50, tail vein, rats, n=8): 6.26 ± 1.50 min; Onset time (Sprague-Dawley rats [7]; [14]): <1 min; Adverse reaction: Convulsions (Sprague-Dawley rats [7]; [16]): 0; Adverse reaction: Cough, broken-winded (Sprague-Dawley rats [7]; [16]): 0; Adverse reaction: Euphoria (Sprague-Dawley rats [7]; [16]): 0; Adverse reaction: Four limbs rigidity (Sprague-Dawley rats [7]; [16]): 1; Adverse reaction: Red urine (Sprague-Dawley rats [7]; [16]): 8; Adverse reaction: Slower breathing, Tetany convulsion (Sprague-Dawley rats [7]; [16]): 0; Adverse reaction: Systemic stiffness, Convulsions, Opisthotonus (Sprague-Dawley rats [7]; [16]): 0; Adverse reaction: Tongue stretching (Sprague-Dawley rats [7]; [16]): 0; Adverse reaction: Tremor (Sprague-Dawley rats [7]; [16]): 1"
CCC(CC)OC(=O)C(=O)c1cncn1[C@H](C)c1ccccc1 [Compound D83],,,,,,,,,,ED50 (Sprague-Dawley rats [4]; [13]): > 6 mg/kg
CC(=O)OCC(=O)c1cncn1[C@H](C)c1ccccc1 [Compound C53],,,,,,,,,,ED50 (Sprague-Dawley rats [5]; [13]): 10 to 20 mg/kg
C[C@H](c1ccccc1)n1cncc1C(=O)COCC1CCC1 [Compound C29],,,,,,,,,,ED50 (Sprague-Dawley rats [5]; [13]): 2 to 10 mg/kg
CC#CC(C)OC(=O)c1ccnn1[C@H](C)c1ccccc1 (some centres unmarked) [Compound A11],1 to 2 mg/kg,>4,>8 mg/kg,0.41 ± 0.15 min,2.65 ± 1.10 min,0,0,> 0.1 µM,> 0.1 µM,"Types and incidence of adverse reactions (Sprague-Dawley rats [9]): Red urine(6/6), General; also recorded: Tremor(4/6), Hindlimb; also recorded: rigidity (2/6),; also recorded: Convulsion(1/6),; also recorded: Euphoria(1/6)"
CCOC(=O)c1cc(F)nn1[C@H](C)c1ccccc1 [Compound A49],2 to 6 mg/kg,>2,>9 mg/kg,0.28 ± 0.04 min,2.69 ± 1.18 min,0,0,> 0.1 µM,> 0.1 µM,"Types and incidence of adverse reactions (Sprague-Dawley rats [9]): Red urine(8/8), Hindlimb; also recorded: rigidity (2/8), broken-; also recorded: winded(1/8), Tremor(3/8)"
CC#CC(C)(C)OC(=O)c1c(F)cnn1[C@H](C)c1ccccc1 [Compound A83],1 to 2 mg/kg,>10,>12 mg/kg,0.43 ± 0.32 min,3.21 ± 0.41 min,0,0,> 1 µM,> 1 µM,
CC#CCOC(=O)c1c(F)cnn1[C@H](C)c1ccccc1 [Compound A72],0.04 to 0.5 mg/kg,>100,>11 mg/kg,0.41 ± 0.17 min,0.71 ± 0.20 min,0,0,> 1 µM,> 1 µM,"Types and incidence of adverse reactions (Sprague-Dawley rats [9]): Red and urine(8/8), Tremor(1/8), and Hindlimb rigidity (1/8)"
CCOC(=O)c1c(F)cnn1[C@H](C)c1ccccc1 [Compound A70],1 to 2 mg/kg,>6,>12 mg/kg,0.31 ± 0.08 min,2.51 ± 1.03 min,0,0,> 0.1 µM,> 0.1 µM,
C=C=CC1(OC(=O)c2c(C(F)(F)F)cnn2[C@H](C)c2ccccc2)COC1 [Compound A100],2 to 6 mg/kg,>6,>14 mg/kg,0.49 ± 0.17 min,3.21 ± 0.89 min,0,0,> 0.1 µM,> 0.1 µM,"Types and incidence of adverse reactions (Sprague-Dawley rats [9]): Red urine(8/8), Indirect; also recorded: tremor Tremor(4/8), Four; also recorded: limbs; also recorded: rigidity(2/8), Euphoria(2/8)"
COC(=O)C1=C(OC(=O)c2cc(F)nn2[C@H](C)c2ccccc2)CCCC1 [Compound A54],1 to 2 mg/kg,>9,>12 mg/kg,0.69 ± 0.11 min,2.13 ± 1.80 min,0,0,> 0.1 µM,> 0.1 µM,"Types and incidence of adverse reactions (Sprague-Dawley rats [9]): rigidity; also recorded: (3/8), GeneralTremor(1/8); also recorded: Red urine(8/8), Hindlimb"
CC(=O)COCC(=O)c1c(F)ncn1[C@H](C)c1ccccc1 [Compound C84],,,,,,,,,,ED50 (Sprague-Dawley rats [5]; [13]): 10 to 20 mg/kg

# Reference: patent publication US12570612B2, “Substituted nitrogen heterocyclic compound and anesthetic effect thereof” (priority 2019, dated 2026)
